Measured values: patent US11203586B2, “Iridinesulfonamide compound and use method thereof” (Chia Tai Tianqing Pharmaceutical Group Co., Ltd., priority 2016, dated 2021)

Assays:
IDH1 (R132H) [1] = target: T1, IDH1 (R132H) (Homo sapiens (Human), UniProt O75874, R132H); test: Binding mode determination, free compound by LC-MS/MS; conditions: incubated with IDH1 (R132H), FIG. 1
Description: The compounds were incubated with IDH1 (R132H), and then divided into N parts. The reaction was terminated by adding acetonitrile at different time points, and the organic phase was separated by centrifugation. The resulting samples were stored at −80° C. until analysis, and the concentration of the compounds in free from were analyzed by LC-MS/MS, mobile phase A: water (0.1% of formic acid), B: acetonitrile (0.1% of formic acid), strong needle wash solution: acetonitrile:water=9:1, weak needle wash solution: acetonitrile:water=1:9.

IDH1 (R132H) [2] = target: T1, IDH1 (R132H); test: Enzyme assay, NADPH decrease detected with Diaphorase/Resazurin; type: biochemical; conditions: 40 nM enzyme, 20 μM NADPH, incubated at 23° C. for 16 hours before α-KG; 12 concentrations
Text: (§1) Resazurin is a traditional redox dye, and after a redox reaction, it can be reduced from a blue resazurin without fluorescence to a pink fluorescent substance, resorufin, which can be measured and quantified with relative fluorescence unit (RFU) of fluorophotometer (Ex=530-570 nm, Em=590-620 nm). At present, resazurin is widely used for determining the viability of bacteria, cells, etc. and the enzyme activity detection of oxidoreductase. We detected the decrease of cofactor NADPH to determine the inhibitory activity of a compound against IDHm and detected the generation of cofactor NADPH to determine the inhibitory activity of a compound against IDH WT.
(§2) The compound was pre-incubated with IDHm and NADPH, and then the reaction was initiated by adding α-KG and performed for certain time under a linear condition.
(§3) Then, Diaphorase (lipoamide dehydrogenase) and the corresponding substrate Resazurin were added thereto for detection. Lipoamide dehydrogenase terminated the IDH2m reaction by decreasing the available cofactor NADPH, which oxidized NADPH to NADP, and reduced resazurin to high fluorescent resorufin. The amount of the remaining cofactor NADPH after a specific reaction time was quantified via an easily detectable fluorophore.
(§4) The specific operation was as follows: 2.5 μl of the compound diluted in a 3-fold gradient was added to a 384-well plate, followed by adding 5 μL of the reaction buffer (20 mM Tris-HCl, pH 7.5; 150 mM NaCl; 10 mM MgCl2; 0.4 mg/mL BSA (Bovine Serum Albumin) and 2 mM DTT (dithiothreitol)) containing 40 nM IDH1 (R132H/R132C) and 20 μM NADPH. Then, the above test mixture was incubated at 23° C. for 16 hours, and then 2.5 μL of the reaction buffer containing 4 mM α-KG was added to initiate the reaction. After they were incubated for 60 minutes at room temperature, 5 μL of the termination mixture (0.4 U/ml Diaphorase and 20 μM Resazurin) formulated with the reaction buffer was added to convert resazurin to resorufin, so as to measure the amount of the remaining NADPH. After incubating at 23° C. for 10 minutes, fluorescence values were determined through Flexstation 3 at Ex535/Em595. The enzyme activity of each compound was respectively determined at 12 concentrations, and the data were calculated using the software GraFit6.0 (Erithacus Software) to obtain the IC50 value of each compound.

Pharmacokinetic test = type: in vivo; conditions: male SD rats, oral 5 mg/kg
Description: Male SD rats were from Beijing Vital River Laboratory Animal Technology Co., Ltd., and divided into groups (3 rats per group). The rats were intragastically administered with the test sample suspension (5 mg/kg) via a single peroral administration, respectively. The animals were fasted overnight before this study. The fasting time period was from 10 hours before administration to 4 hours after administration. Blood samples were taken at 0.25, 0.5, 1, 2, 4, 6, 8 and 24 hours after administration. After the rats were anesthetized with isoflurane using an anesthesia machine for small animal, and then 0.3 mL whole blood samples were taken from the fundus venous plexus. The blood samples were placed in heparin anticoagulant tubes, and centrifuged for 5 min at 4° C. and 4000 rpm. The plasma was transferred to centrifuge tubes, and stored at −80° C. until analysis. The samples in plasma were extracted through protein precipitation. The liquid extract was analyzed by LC-MS/MS, mobile phase A: water (0.1% of formic acid), B: acetonitrile (0.1% of formic acid), strong needle wash solution: acetonitrile:water=9:1, weak needle wash solution: acetonitrile:water=1:9.

IDH1 (R132C) = IDH1 (R132C) (Homo sapiens (Human), UniProt O75874, R132C); test: Enzyme assay, NADPH decrease detected with Diaphorase/Resazurin; type: biochemical; conditions: 40 nM enzyme, 20 μM NADPH, incubated at 23° C. for 16 hours before α-KG; 12 concentrations
IDH1 (R132C), sequence (O75874 whole entry R132C): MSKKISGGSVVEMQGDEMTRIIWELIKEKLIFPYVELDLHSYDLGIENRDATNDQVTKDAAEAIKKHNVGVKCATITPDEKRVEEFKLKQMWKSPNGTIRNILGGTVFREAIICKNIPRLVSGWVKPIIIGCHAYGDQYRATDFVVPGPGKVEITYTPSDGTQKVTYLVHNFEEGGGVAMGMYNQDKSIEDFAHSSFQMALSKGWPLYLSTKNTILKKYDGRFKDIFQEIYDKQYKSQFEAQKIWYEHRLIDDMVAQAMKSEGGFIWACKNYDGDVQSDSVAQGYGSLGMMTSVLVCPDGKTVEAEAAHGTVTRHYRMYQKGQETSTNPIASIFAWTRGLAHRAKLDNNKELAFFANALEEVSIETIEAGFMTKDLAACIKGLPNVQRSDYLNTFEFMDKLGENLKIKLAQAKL
Text: as §1, §2, §3, §4

[3] = rat, 0.5% MC, 0.2% Tween80, plasma

T1 sequence (O75874 whole entry R132H): as the sequence (O75874 whole entry R132C) above, with C132H counted along it

SMILES	IC50 (IDH1 (R132H) [2])	also measured
O=C(NC1CC(F)(F)C1)C(c1ccccc1Cl)N(C(=O)CNS(=O)(=O)N1CC1)c1cccc(F)c1 (stereo not drawn) [Example 10, 2-(aziridine-1-sulfonylamino)-N-(1-(2-chlorophenyl)-2-((3,3-difluorocyclobutyl)amino)-2-oxoethyl)-N-(3-fluorophenyl)acetamide]	< 20 nM	binding of the compound to the enzyme over time (IDH1 (R132H) [1]): increased over time; drug concentration in vivo over time (Pharmacokinetic test; PK curve FIG. 2): decreased drug concentration in vivo over time; Cmax (Pharmacokinetic test; [3]): 508 ng/mL; Tmax (Pharmacokinetic test; [3]): 15 min; half-life (Pharmacokinetic test; [3]): 90 min; AUC(0-inf) (Pharmacokinetic test; rat, 0.5% MC, 0.2% Tween80, plasma, read-out: AUCINF—obs): 794 ng·h/mL
O=C(NC1CC(F)(F)C1)[C@H](c1ccccc1Cl)N(C(=O)CNS(=O)(=O)N1CC1)c1cccc(F)c1 [Example 25, (S)-2-(aziridine-1-sulfonylamino)-N-(1-(2-chlorophenyl)-2-((3,3-difluorocyclobutyl)amino)-2-oxoethyl)-N-(3-fluorophenyl)acetamide]	< 20 nM	IC50 (IDH1 (R132C)): < 20 nM
O=C(NC1CC(F)(F)C1)C(c1ccccc1Cl)N(C(=O)CNS(=O)(=O)N1CC1)c1ccc(F)c(F)c1 (stereo not drawn) [Example 29, 2-(aziridine-1-sulfonylamino)-N-(1-(2-chlorophenyl)-2-((3,3-difluorocyclobutyl)amino)-2-oxoethyl)-N-(3,4-difluorophenyl)acetamide]	< 20 nM	
O=C(NC1CCC(F)(F)CC1)C(c1ccccc1Cl)N(C(=O)CNS(=O)(=O)N1CC1)c1cccc(F)c1 (stereo not drawn) [Example 30, 2-(aziridine-1-sulfonylamino)-N-(1-(2-chlorophenyl)-2-(4,4-difluorocyclohexylamino)-2-oxoethyl)-N-(3-fluorophenyl)acetamide]	< 20 nM	
C[C@@H]1CN1S(=O)(=O)NCC(=O)N(c1cccc(F)c1)C(C(=O)NC1CCCCC1)c1ccccc1Cl (stereo partly drawn) [Example 31, 2-(2-chlorophenyl)-N-cyclohexyl-2-(N-(3-fluorophenyl)-2-(((R)-2-methylaziridine)-1-sulfonylamino)acetamido)acetamide]	< 20 nM	
C[C@H]1CN1S(=O)(=O)NCC(=O)N(c1cccc(F)c1)C(C(=O)NC1CCCCC1)c1ccccc1Cl (stereo partly drawn) [Example 32, 2-(2-chlorophenyl)-N-cyclohexyl-2-(N-(3-fluorophenyl)-2-(((S)-2-methylaziridine)-1-sulfonylamino)acetamido)acetamide]	< 20 nM	
C[C@H]1CN1S(=O)(=O)NCC(=O)N(c1cc(F)cc(C#N)c1)C(C(=O)NC1CC(F)(F)C1)c1ccccc1Cl (stereo partly drawn) [Example 33, 2-(2-chlorophenyl)-2-(N-(3-cyano-5-fluorophenyl)-2-(((S)-2-methylaziridine)-1-sulfonylamino)acetamido)-N-(3,3-difluorocyclobutyl)acetamide]	< 100 nM	
O=C(NC1CC(F)(F)C1)[C@H](c1ccccc1Cl)N(C(=O)[C@H]1CCN(S(=O)(=O)N2CC2)C1)c1cccc(F)c1 [Example 34, (S)-1-(aziridin-1-ylsulfonyl)-N—((S)-1-(2-chlorophenyl)-2-((3,3-difluorocyclobutyl)amino)-2-oxoethyl)-N-(3-fluorophenyl)pyrrolidine-3-carboxamide]	< 20 nM	
O=C(NC1CC(F)(F)C1)[C@@H](c1ccccc1Cl)N(C(=O)[C@H]1CCN(S(=O)(=O)N2CC2)C1)c1cccc(F)c1 [Example 35, (S)-1-(aziridin-1-ylsulfonyl)-N—((R)-1-(2-chlorophenyl)-2-((3,3-difluorocyclobutyl)amino)-2-oxoethyl)-N-(3-fluorophenyl)pyrrolidine-3-carboxamide]	< 20 nM	
O=C(NC1CC(F)(F)C1)[C@H](c1ccccc1Cl)N(C(=O)[C@@H]1CCN(S(=O)(=O)N2CC2)C1)c1cccc(F)c1 [Example 36, (R)-1-(aziridin-1-ylsulfonyl)-N—((S)-1-(2-chlorophenyl)-2-((3,3-difluorocyclobutyl)amino)-2-oxoethyl)-N-(3-fluorophenyl)pyrrolidine-3-carboxamide]	< 20 nM	
O=C(NC1CC(F)(F)C1)[C@@H](c1ccccc1Cl)N(C(=O)[C@@H]1CCN(S(=O)(=O)N2CC2)C1)c1cccc(F)c1 [Example 37, (R)-1-(aziridin-1-ylsulfonyl)-N—((R)-1-(2-chlorophenyl)-2-((3,3-difluorocyclobutyl)amino)-2-oxoethyl)-N-(3-fluorophenyl)pyrrolidine-3-carboxamide]	< 1000 nM	
